Results as given in patent publication US7893288B2, “Poly-halogenated triazapentadiene compositions” (Board of Regents, The University of Texas System, priority 2007, dated 2011).
“And” between values parts separate entries of the source, which are not always exact repeats. Equal entries are not always repeated.

Tests used:
Type in all cases: cell-based
[1] = tested on: Gram positive and Gram negative bacteria; assay: Antimicrobial activity, summary of TABLES 16-18
Method: The new class of fluorinated triazapentadiene compounds with and without metal complexation as described herein were analyzed for antibacterial activity against several bacterial strains (both Gram positive and Gram negative). Methods for antimicrobial analysis included a modified Kirby-Bauer method and a determination of their minimum inhibitory concentrations. In brief, the modified Kirby-Bauer method relied on placement of a filter disk impregnated with a desired compound on a solid growth medium. Bacteria were grown to a confluent lawn and the extent of growth inhibition was measured (e.g., as an extent/percentage of a clear zone on the disk and/or solid medium).
For MIC assessment, compounds were initially dissolved in DMSO and serial dilutions of soluble compounds were made in LB broth.

[2] = tested on: Pseudomonas aeruginosa PAO1; assay: Disk sensitivity test (modified Kirby-Bauer), P. aeruginosa;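 note: Compound-loaded filter disks on LB agar lawns, DMSO as solvent, zone of inhibition around each disk read after overnight incubation at 37 °C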
Method: (§1) Filter disks were provided as sterile filter paper (about 6 mm in diameter) and spotted with 20 μL of a selected compound. Each compound was initially dissolved in dimethylsulfoxide (DMSO); any subsequent dilutions were also made in DMSO. Each filter was placed on an LB agar plate spread with 100 μL of a bacterial culture that had been grown overnight in suitable LB broth. Plates were incubated overnight at 37° C., after which, the extent of growth inhibition around each filter disk was measured. Bacterial strains included Staphylococcus aureus (ATCC 25923), Pseudomonas aeruginosa PAO1, Bacillus subtilis W168 and Escherichia coli HB101. […] The latter two strains are non-pathogenic Gram-positive and Gram-negative bacterial strains, respectively.

Escherichia coli HB101 [3] = assay: Disk sensitivity test (modified Kirby-Bauer), E. coli;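 note: filter disk loaded with compound in DMSO laid on an LB agar bacterial lawn, kept overnight at 37 °C, then the inhibition zone around the disk is measured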
Method: as §1

[4] = tested on: Staphylococcus aureus (ATCC 25923); assay: Minimum inhibitory concentration in LB broth, S. aureus
[5] = tested on: Staphylococcus aureus (ATCC 25923); assay: Disk sensitivity test (modified Kirby-Bauer), S. aureus;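 note: Compound-loaded filter disks on LB agar plates seeded with a confluent bacterial lawn, compound dissolved in DMSO, plates kept overnight at 37 °C, then inhibition zone around disk measured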
Method: as §1

Bacillus subtilis W168 [6] = assay: Disk sensitivity test (modified Kirby-Bauer), B. subtilis;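 note: Compound-loaded filter disks on LB agar plates seeded with a bacterial lawn, plates held overnight at 37 °C, then the clear zone around each disk measured, compounds in DMSO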
Method: as §1

Bacillus subtilis W168 [7] = assay: Minimum inhibitory concentration in LB broth, B. subtilis
Escherichia coli HB101 [8] = assay: Minimum inhibitory concentration in LB broth, E. coli;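 note: broth dilution MIC, test compounds first taken up in DMSO, then serially diluted in LB medium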
[9] = tested on: Pseudomonas aeruginosa PAO1; assay: Minimum inhibitory concentration in LB broth, P. aeruginosa
[10] = efficacy per mole from MIC values

For `Fc1cccc(C(F)(F)F)c1N=C(N=C(Nc1c(F)cccc1C(F)(F)F)C(F)(F)C(F)(F)C(F)(F)F)C(F)(F)C(F)(F)C(F)(F)F` [[N{(C3F7)C(2-F,6-(CF3)C6H3)N}2]H], the “antimicrobial activity (in words)” value [1] was “Effective”, the “Diameter of the zone of growth inhibition” value ([2]; 5.7 × 10^0 mM) was 8.5 mm and the “Diameter of the zone of growth inhibition” value ([2]; 5.7 × 10^1 mM) was 9.0 mm. For the same compound, the “Diameter of the zone of growth inhibition” value ([2]; 5.7 × 10^−1 mM) was 8.0 mm, the “Diameter of the zone of growth inhibition” value ([2]; 5.7 × 10^−2 mM) was 8.0 mm and the “Diameter of the zone of growth inhibition” value ([2]; 5.7 × 10^−3 mM) was 8.0 mm. The “Diameter of the zone of growth inhibition” value ([2]; 5.7 × 10^−4 mM) was 7.0 mm, the “Diameter of the zone of growth inhibition” value ([2]; 5.7 × 10^−5 mM) was 6.0 (NZ) mm and the “Diameter of the zone of growth inhibition” value (Escherichia coli HB101 [3]; 5.7 × 10^0 mM) was 8.5 mm. For the same compound, the “Diameter of the zone of growth inhibition” value (Escherichia coli HB101 [3]; 5.7 × 10^1 mM) was 9.0 mm, the “Diameter of the zone of growth inhibition” value (Escherichia coli HB101 [3]; 5.7 × 10^−1 mM) was 8.0 mm and the “Diameter of the zone of growth inhibition” value (Escherichia coli HB101 [3]; 5.7 × 10^−2 mM) was 7.0 mm. The “Diameter of the zone of growth inhibition” value (Escherichia coli HB101 [3]; 5.7 × 10^−3 mM) was 7.0 mm, the “Diameter of the zone of growth inhibition” value (Escherichia coli HB101 [3]; 5.7 × 10^−4 mM) was 7.0 mm and the “Diameter of the zone of growth inhibition” value (Escherichia coli HB101 [3]; 5.7 × 10^−5 mM) was 7.0 mm. The MIC [4] was 1.55 μg/ml and 1.06 × 10^−3 mM, the “Relative to AgNO3” value [4, 10] was 34.71 and the “Diameter of the zone of growth inhibition” value ([5]; 5.7 × 10^0 mM) was 36.0 mm. The “Diameter of the zone of growth inhibition” value ([5]; 5.7 × 10^1 mM) was 47.5 mm, the “Diameter of the zone of growth inhibition” value ([5]; 5.7 × 10^−1 mM) was 34.0 mm and the “Diameter of the zone of growth inhibition” value ([5]; 5.7 × 10^−2 mM) was 9.0 mm. For the same compound, the “Diameter of the zone of growth inhibition” value ([5]; 5.7 × 10^−3 mM) was 8.0 mm, the “Diameter of the zone of growth inhibition” value ([5]; 5.7 × 10^−4 mM) was 6.0 (NZ) mm and the “Diameter of the zone of growth inhibition” value ([5]; 5.7 × 10^−5 mM) was 6.0 (NZ) mm. For the same compound, the “Diameter of the zone of growth inhibition” value (Bacillus subtilis W168 [6]; 5.7 × 10^0 mM) was 85.0 mm, the “Diameter of the zone of growth inhibition” value (Bacillus subtilis W168 [6]; 5.7 × 10^1 mM) was 100.0 mm and the “Diameter of the zone of growth inhibition” value (Bacillus subtilis W168 [6]; 5.7 × 10^−1 mM) was 50.0 mm. The “Diameter of the zone of growth inhibition” value (Bacillus subtilis W168 [6]; 5.7 × 10^−2 mM) was 30.0 mm, the “Diameter of the zone of growth inhibition” value (Bacillus subtilis W168 [6]; 5.7 × 10^−3 mM) was 13.5 mm and the “Diameter of the zone of growth inhibition” value (Bacillus subtilis W168 [6]; 5.7 × 10^−4 mM) was 7.0 mm. The “Diameter of the zone of growth inhibition” value (Bacillus subtilis W168 [6]; 5.7 × 10^−5 mM) was 8.0 mm, the “Diameter of the zone of growth inhibition” value (Bacillus subtilis W168 [6]; 5.7 × 10^−6 mM) was 8.0 mm and the “Diameter of the zone of growth inhibition” value (Bacillus subtilis W168 [6]; 5.7 × 10^−7 mM) was 7.5 mm. The MIC (Bacillus subtilis W168 [7]) was 1.60 × 10^−1 μg/ml and 2.19 × 10^−4 mM, the “Relative to AgNO3” value (Bacillus subtilis W168 [7]; [10]) was 671.23 and the MIC (Escherichia coli HB101 [8]) was 2912.70 μg/ml and 3.98 mM. The “Relative to AgNO3” value (Escherichia coli HB101 [8]; [10]) was 1.48 × 10^−2, the MIC [9] was 2912.70 μg/ml and 3.98 mM and the “Relative to AgNO3” value [9, 10] was 4.62 × 10^−3.
